Data reported in patent US7842838B2, “Pyrro[1,2-b]pyridazinone intermediates” (Anadys Pharmaceuticals, Inc., priority 2006, dated 2010).

These compounds were tested against NS5B polymerase (Hepatitis C virus genotype 1b, UniProt P26663) (assay: HCV NS5B polymerase inhibition assay (streptavidin-coated FlashPlate, [α-33P]GTP incorporation)). Conditions: not given.
Format: biochemical
Method: Compounds were tested for HCV polymerase inhibition. Assays were performed in a 96-well streptavidin-coated FlashPlate using 20 nM enzyme, 0.5 μCi of [α-^33P]GTP, 0.6 μM GTP, and 250 nM 5′biotinylated oligo (rG13)/poly rC in 20 mM Tris-HCl, pH 7.5, 5 mM MgCl2, 5 mM dithiothreitol, […] bovine serum albumin, and 100 U/mL RNAse inhibitor. The reaction was stopped by aspiration after 75 min at 28° C. and the plate was washed several times. After washing and drying the plate, incorporated radioactivity was counted using a Microbeta scintillation counter. IC50 values were calculated relative to the uninhibited control and inhibition data were fitted to a 4-parameter IC50 equation.

Sequence of NS5B polymerase (P26663 2420-3010): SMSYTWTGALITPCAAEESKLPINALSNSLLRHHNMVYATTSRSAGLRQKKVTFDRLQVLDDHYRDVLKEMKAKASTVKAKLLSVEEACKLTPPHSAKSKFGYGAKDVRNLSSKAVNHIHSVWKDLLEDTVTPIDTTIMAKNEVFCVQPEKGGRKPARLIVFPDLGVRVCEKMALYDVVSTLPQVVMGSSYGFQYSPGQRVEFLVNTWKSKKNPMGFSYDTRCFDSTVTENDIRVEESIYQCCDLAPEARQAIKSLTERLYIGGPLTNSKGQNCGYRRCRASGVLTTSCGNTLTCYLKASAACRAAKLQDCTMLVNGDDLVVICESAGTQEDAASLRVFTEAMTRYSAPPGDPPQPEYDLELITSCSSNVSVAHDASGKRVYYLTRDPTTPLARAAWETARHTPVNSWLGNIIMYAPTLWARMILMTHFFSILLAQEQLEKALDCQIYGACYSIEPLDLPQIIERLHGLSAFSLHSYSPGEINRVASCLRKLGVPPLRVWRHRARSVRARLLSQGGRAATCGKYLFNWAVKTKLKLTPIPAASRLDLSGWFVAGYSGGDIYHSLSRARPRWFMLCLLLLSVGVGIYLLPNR

| Structure (SMILES) | IC50 [nM] |
| --- | --- |
| CS(=O)(=O)Nc1ccc2c(c1)S(=O)(=O)N=C(c1c(O)c3cccn3n(Cc3ccc(F)c(Cl)c3)c1=O)N2 [Example 17, N-{3-[1-(3-Chloro-4-fluoro-benzyl)-4-hydroxy-2-oxo-1,2-dihydro-pyrrolo[1,2-b]pyridazin-3-yl]-1,1-dioxo-1,4-dihydro-1λ^6-benzo[1,2,4]thiadiazin-7-yl}-methanesulfonamide] | < 100 |
| CC(C)CCn1c(=O)c(C2=Nc3ccc(NS(C)(=O)=O)cc3S(=O)(=O)N2)c(O)c2cccn21 [Example 3, N-{3-[4-Hydroxy-1-(3-methyl-butyl)-2-oxo-1,2-dihydro-pyrrolo[1,2-b]pyridazin-3-yl]-1,1-dioxo-1,4-dihydro-1λ^6-benzo[1,2,4]thiadiazin-7-yl}-methanesulfonamide] | < 100 |

Same assay, conditions: 20 nM enzyme, 75 min at 28° C.; read-out: NS5B Polymerase IC50

| Structure (SMILES) | IC50 [nM] |
| --- | --- |
| CC(C)CCn1c(=O)c(C2=NS(=O)(=O)c3cc(N(C)S(C)(=O)=O)ccc3N2)c(O)c2cccn21 [Example 6, N-{3-[4-Hydroxy-1-(3-methyl-butyl)-2-oxo-1,2-dihydro-pyrrolo[1,2-b]pyridazin-3-yl]-1,1-dioxo-1,4-dihydro-1λ^6-benzo[1,2,4]thiadiazin-7-yl}-N-methyl-methanesulfonamide] | 100 to 3000 |
| CC(C)CCn1c(=O)c(C2=NS(=O)(=O)c3cc(NS(C)(=O)=O)ccc3N2)c(O)c2cc(C#N)cn21 [Example 15, N-{3-[6-Cyano-4-hydroxy-1-(3-methyl-butyl)-2-oxo-1,2-dihydro-pyrrolo[1,2-b]pyridazin-3-yl]-1,1-dioxo-1,4-dihydro-1λ^6-benzo[1,2,4]thiadiazin-7-yl}-methanesulfonamide] | 100 to 3000 |
| CN(c1ccc2c(c1)S(=O)(=O)N=C(c1c(O)c3cccn3n(Cc3ccc(F)cc3)c1=O)N2)S(C)(=O)=O [Example 10, N-{3-[1-(4-Fluoro-benzyl)-4-hydroxy-2-oxo-1,2-dihydro-pyrrolo[1,2-b]pyridazin-3-yl]-1-dioxo-1,4-dihydro-1λ^6-benzo[1,2,4]thiadiazin-7-yl}-N-methyl-methanesulfonamide] | 100 to 3000 |
| CC(C)CCn1c(=O)c(C2=CS(=O)(=O)c3cc(N(C)S(C)(=O)=O)ccc3N2)c(O)c2cccn21 [Example 7, N-{3-[4-Hydroxy-1-(3-methyl-butyl)-2-oxo-1,2-dihydro-pyrrolo[1,2-b]pyridazin-3-yl]-1,1-dioxo-1,4-dihydro-1λ^6-benzo[1,4]thiazin-7-yl}-N-methyl-methanesulfonamide] | 100 to 3000 |
| COc1ccc2c(c1)S(=O)(=O)N=C(c1c(O)c3cccn3n(CCC(C)C)c1=O)N2 [Example 2, 4-Hydroxy-3-(7-methoxy-1,1-dioxo-1,4-dihydro-1λ^6-benzo[1,2,4]thiadiazin-3-yl)-1-(3-methyl-butyl)-pyrrolo[1,2-b]pyridazin-2-one] | 100 to 3000 |
| CC(C)CCn1c(=O)c(C2=NS(=O)(=O)c3ccccc3N2)c(O)c2cccn21 [Example 1, 3-(1,1-Dioxo-1,4-dihydro-1λ^6-benzo[1,2,4]thiadiazin-3-yl)-4-hydroxy-1-(3-methyl-butyl)-pyrrolo[1,2-b]pyridazin-2-one] | 100 to 3000 |
| CC(C)(C)CCn1c(=O)c(C2=NS(=O)(=O)c3cc(NS(C)(=O)=O)ccc3N2)c(O)c2cccn21 [Example 4, N-{3-[1-(3,3-Dimethyl-butyl)-4-hydroxy-2-oxo-1,2-dihydro-pyrrolo[1,2-b]pyridazin-3-yl]-1,1-dioxo-1,4-dihydro-1λ^6-benzo[1,2,4]thiadiazin-7-yl}-methanesulfonamide] | < 100 |
| CC(C)CCn1c(=O)c(C2=CS(=O)(=O)c3cc(NS(C)(=O)=O)ccc3N2)c(O)c2cccn21 [Example 16, N-{3-[4-Hydroxy-1-(3-methyl-butyl)-2-oxo-1,2-dihydro-pyrrolo[1,2-b]pyridazin-3-yl]-1,1-dioxo-1,4-dihydro-1λ^6-benzo[1,4]thiazin-7-yl}-methanesulfonamide] | < 100 |
| CN(c1ccc2c(c1)S(=O)(=O)N=C(c1c(O)c3cccn3n(CCC(C)(C)C)c1=O)N2)S(C)(=O)=O [Example 5, N-{3-[1-(3,3-Dimethyl-butyl)-4-hydroxy-2-oxo-1,2-dihydro-pyrrolo[1,2-b]pyridazin-3-yl]-1,1-dioxo-1,4-dihydro-1λ^6-benzo[1,2,4]thiadiazin-7-yl}-N-methyl-methanesulfonamide] | < 100 |
| CC(C)(C)CCn1c(=O)c(C2=CS(=O)(=O)c3cc(NS(C)(=O)=O)ccc3N2)c(O)c2cccn21 [Example 8, N-{3-[1-(3,3-Dimethyl-butyl)-4-hydroxy-2-oxo-1,2-dihydro-pyrrolo[1,2-b]pyridazin-3-yl]-1,1-dioxo-1,4-dihydro-1λ^6-benzo[1,4]thiazin-7-yl}-methanesulfonamide] | < 100 |
| CC(C)CCn1c(=O)c(C2=NS(=O)(=O)c3cc(NS(=O)(=O)C4CC4)ccc3N2)c(O)c2cccn21 [Example 13, Cyclopropanesulfonic acid {3-[4-hydroxy-1-(3-methyl-butyl)-2-oxo-1,2-dihydro-pyrrolo[1,2-b]pyridazin-3-yl]-1,1-dioxo-1,4-dihydro-1λ^6-benzo[1,2,4]thiadiazin-7-yl}-amide] | 100 to 3000 |
| CS(=O)(=O)Nc1ccc2c(c1)S(=O)(=O)N=C(c1c(O)c3cccn3n(Cc3ccc(F)cc3)c1=O)N2 [Example 9, N-{3-[1-(4-Fluoro-benzyl)-4-hydroxy-2-oxo-1,2-dihydro-pyrrolo[1,2-b]pyridazin-3-yl]-1,1-dioxo-1,4-dihydro-1λ^6-benzo[1,2,4]thiadiazin-7-yl}-methanesulfonamide] | < 100 |
| O=c1c(C2=NS(=O)(=O)c3cc(C4CCCS4(=O)=O)ccc3N2)c(O)c2cccn2n1Cc1ccc(F)cc1 (centres unmarked) [Example 11, 3-[7-(1,1-Dioxo-tetrahydro-1λ^6-thiophen-2-yl)-1,1-dioxo-1,4-dihydro-1λ^6-benzo[1,2,4]thiadiazin-3-yl]-1-(4-fluoro-benzyl)-4-hydroxy-pyrrolo[1,2-b]pyridazin-2-one] | 100 to 3000 |
| O=c1c(C2=NS(=O)(=O)c3ccccc3N2)c(O)c2cccn2n1Cc1ccc(F)cc1 [Example 12, 3-(1,1-Dioxo-1,4-dihydro-1λ^6-benzo[1,2,4]thiadiazin-3-yl)-1-(4-fluoro-benzyl)-4-hydroxy-pyrrolo[1,2-b]pyridazin-2-one] | 100 to 3000 |
| CC(C)CCn1c(=O)c(C2=NS(=O)(=O)c3cc(NS(C)(=O)=O)ccc3N2)c(O)c2cc(F)cn21 [Example 14, N-{3-[6-Fluoro-4-hydroxy-1-(3-methyl-butyl)-2-oxo-1,2-dihydro-pyrrolo[1,2-b]pyridazin-3-yl]-1,1-dioxo-1,4-dihydro-1λ^6-benzo[1,2,4]thiadiazin-7-yl}-methanesulfonamide] | < 100 |
